Experimental findings from article PMC10280043 (RSC Advances, 2023) are described below.

Test [1] has as its target hCAII (Homo sapiens, UniProt P00918). As to the kind of experiment: Carbonic anhydrase inhibition assay, hCAII. In kind it is biochemical.
Test [2] addresses hCAIX (Homo sapiens, UniProt Q16790). The test is described as follows: biochemical.
In test [3] the target is hCAXII (Homo sapiens, UniProt O43570). The test is described as follows: Carbonic anhydrase inhibition assay, hCAXII. Type of test: biochemical.

As usually defined, the IC50 is the concentration needed to halve the response being measured.

Sequence of hCAXII (O43570 25-354): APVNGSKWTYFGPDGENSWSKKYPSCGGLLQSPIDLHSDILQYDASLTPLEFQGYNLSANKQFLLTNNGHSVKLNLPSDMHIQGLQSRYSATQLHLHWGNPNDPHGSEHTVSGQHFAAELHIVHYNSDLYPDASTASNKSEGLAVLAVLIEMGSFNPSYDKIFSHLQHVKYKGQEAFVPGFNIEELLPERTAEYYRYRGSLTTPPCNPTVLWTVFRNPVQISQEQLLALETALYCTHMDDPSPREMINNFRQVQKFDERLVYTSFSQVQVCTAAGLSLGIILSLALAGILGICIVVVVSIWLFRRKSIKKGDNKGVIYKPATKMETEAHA

With `COc1cccc(C2CC(c3cc(Cl)cc(Cl)c3O)=NN2c2ccc(S(N)(=O)=O)cc2)c1` (stereo not drawn) [4i, 4-(3-(3,5-Dichloro-2-hydroxyphenyl)-5-(3-methoxyphenyl)-4,5-dihydro-1H-pyrazol-1-yl)benzene sulfonamide], the results for the IC50 in test [1], in test [2] and in test [3] were 8.15 ± 0.19 µM, 4.51 ± 0.22 µM and 1.6 ± 0.01 µM, respectively.

In turn, `COc1ccccc1C1CC(c2ccc(F)cc2O)=NN1c1ccc(S(N)(=O)=O)cc1` (stereo not drawn) [4k, 4-(3-(4-Fluoro-2-hydroxyphenyl)-5-(2-methoxyphenyl)-4,5-dihydro-1H-pyrazol-1-yl)benzene sulfonamide] displayed an IC50 in test [3] of 1 ± 0.09 µM.

As for `COc1cccc(C2CC(c3cc(Br)ccc3O)=NN2c2ccc(S(N)(=O)=O)cc2)c1` (stereo not drawn) [4g, 4-(3-(5-Bromo-2-hydroxyphenyl)-5-(3-methoxyphenyl)-4,5-dihydro-1H-pyrazol-1-yl)benzene sulfonamide], the results for the IC50 in test [1], in test [2] and in test [3] were 8.26 ± 0.99 µM, 5.28 ± 0.69 µM and 0.12 ± 0.07 µM, respectively.

As for `Cc1ccc(C2CC(c3ccc(F)cc3O)=NN2c2ccc(S(N)(=O)=O)cc2)cc1` (stereo not drawn) [4j, 4-(3-(4-Fluoro-2-hydroxyphenyl)-5-(p-tolyl)-4,5-dihydro-1H-pyrazol-1-yl)benzene sulfonamide], the IC50 in test [1] is 0.39 ± 0.05 µM; in test [2], 0.15 ± 0.07 µM; in test [3], 0.28 ± 0.05 µM.

As for `Cc1ccc(C2CC(c3cc(Br)ccc3O)=NN2c2ccc(S(N)(=O)=O)cc2)cc1` (stereo not drawn) [4f, 4-(3-(5-Bromo-2-hydroxyphenyl)-5-(p-tolyl)-4,5-dihydro-1H-pyrazol-1-yl)benzene sulfonamide], the IC50 in test [2] is 0.24 ± 0.08 µM; in test [3] it was 6.97 ± 0.14 µM.

Take `NS(=O)(=O)c1ccc(N2N=C(c3ccccc3O)CC2c2ccc(Cl)cc2)cc1` (stereo not drawn) [4c, 4-(5-(4-Chlorophenyl)-3-(2-hydroxyphenyl)-4,5-dihydro-1H-pyrazol-1-yl)benzene sulfonamide]: the IC50 in test [1] was found to be 1.2 ± 0.4 µM; in test [2] it was 7.08 ± 0.4 µM; in test [3], 2.87 ± 0.02 µM.

In the case of `NS(=O)(=O)c1ccc(N2N=C(c3cc(Br)ccc3O)CC2c2ccc(Br)cc2)cc1` (stereo not drawn) [4h, 4-(3-(5-Bromo-2-hydroxyphenyl)-5-(4-bromophenyl)-4,5-dihydro-1H-pyrazol-1-yl)benzene sulfonamide], the IC50 was determined as 17.2 ± 1.77 µM in test [1], 0.26 ± 0.04 µM in test [2] and 0.38 ± 0.1 µM in test [3].
